Measured values as given in patent US9278100B2, “Inhibitors of bruton's tyrosine kinase for the treatment of solid tumors” (Pharmacyclics LLC, priority 2008, dated 2016).
One block for each compound: values may come before it.

How the values were obtained:
[1] = test system: Btk expressing B cell lymphoma cell lines; assay: Sensitivity of a panel of nine Btk expressing B cell lymphoma cell lines; type: cell-based; details: two cell lines with low pERK levels
Description: After 72 hours, cell number was measured using Alamar Blue using manufacturer's protocol. A dilution series of untreated cells was run in parallel to verify that the Alamar Blue assay reliably reflected cell number and that growth conditions, were not limiting. […] GI50 values were confirmed in two or more separate experiments for each cell line.
A panel of nine Btk expressing B cell lymphoma cell lines was screened for basal pERK levels.

Ramos = assay: Sensitivity of Ramos cell line; type: cell-based
From the text: To identify biomarkers that correlate with response to Compound 1, phosphorylation events in the BCR signal transduction pathway were investigated.

proteinuria = assay: Mouse MRL/lpr model of lupus; type: in vivo, MRL/lpr mice; details: 3.125 mg/kg, 12.5 mg/kg, and 50 mg/kg orally once per day
mast cell degranulation = assay: Mouse passive cutaneous anaphylaxis model; type: in vivo; details: increasing doses, single oral dose
Description: (FIG. 4) Mice were sensitized with an intradermal injection of monoclonal anti-DNP-IgE in the back. […] After one hour, animals were challenged with an intravenous injection of DNP-BSA and Evans Blue dye. Mast cell degranulation leads to vascular permeability and the distribution of the dye into the skin of the back. The area of extravasation after 1 hour is measured.

[2] = Plasma concentrations in orally dosed rats; type: in vivo, Male jugular vein cannulated rats; details: rat, 8 mg/kg single dose by oral gavage, in combination
Description: Male jugular vein cannulated rats were administered a single dose of all test compounds at 8 mg/kg each, in combination by oral gavage. Dose volumes were adjusted based on body weight data collected immediately prior to dosing. Blood samples were collected at 0.0833 (5 minutes), 0.333 (20 minutes), 1, 3, 6, 9, and 24 hours post-dosing from orally dosed rats. The samples were collected into plasma separator Microtainer tubes with anticoagulant (lithium heparin). Plasma samples were prepared by centrifugation (5 min at 5000×g), and at least 100 μL were transferred to storage tubes and stored frozen at −80° C. Plasma samples were thawed and 75 uL aliquots were transferred to centrifuge tubes to which 10 μL aliquots of internal standard solution (1 μg/mL) were added. The samples were not diluted with blank plasma prior to further processing. Soluble proteins were precipitated by the addition of 200 μL of acetonitrile, followed by centrifugation (20 min at 16,000×g). The samples were evaporated to dryness and reconstituted in 200 μL of water containing 0.2% formic acid and 10% methanol. All samples were loaded onto an autosampler maintained at 6° C. and evaluated for concentrations of test compounds using LC-MS/MS.

normal human B cells = assay: B cell activation after brief exposure and washout (CD69); type: cell-based; details: 1 hour exposure, washed three times, IgM F(ab')2 stimulation 18 hours
Description: B cells were purified from blood from healthy donors by negative selecting using the RosetteSep Human B cell enrichment cocktail. […] After incubation for 1 hour at 37° C., cells were washed three times using an 8-fold dilution in growth media for each wash. Cells were then stimulated with 10 ug/ml of IgM F(ab′)2 for 18 hours at 37° C. Cells were then stained with anti-CD69-PE antibody and analyzed by flow cytometry using standard conditions.

MDA-MB-453 xenograft = assay: MDA-MB-453 breast cancer xenograft; type: in vivo, nude mice; details: 50 mg/kg or 5 mg/kg daily, tumor volume (FIG. 8)
From the text: An MDA-MB-453 breast cancer xenograft was implanted under the skin of a nude mouse. […] The volume of the tumor xenograft was monitored daily.

[3] = target: Tec family kinases, including Btk, and Src family kinases; assay: In vitro profiling against a panel of greater than 100 kinases; type: biochemical
From the text: By way of example only and in some embodiments, the observed potency, selectivity, and cell permeability of compounds such as Compound 2 are appropriate to incorporate these molecules into a Kinase-targeted, activity based probe that allows direct visualization of Kinase activity in intact cells. […] Without limiting the scope of the compositions and methods described herein, it is postulated that the structural basis for the selectivity is covalent modification of a non-catalytic cysteine residue (Cys 481 in Btk) that is conserved in the ATP binding pocket of the Tec family and several other kinases.

BTK = BTK (Homo sapiens (Human), UniProt Q06187); assay: HotSpot kinase assay, BTK; type: biochemical; details: Table 2; 1 uM ATP, one hour incubation with inhibitor
BTK, sequence (Q06187 whole entry): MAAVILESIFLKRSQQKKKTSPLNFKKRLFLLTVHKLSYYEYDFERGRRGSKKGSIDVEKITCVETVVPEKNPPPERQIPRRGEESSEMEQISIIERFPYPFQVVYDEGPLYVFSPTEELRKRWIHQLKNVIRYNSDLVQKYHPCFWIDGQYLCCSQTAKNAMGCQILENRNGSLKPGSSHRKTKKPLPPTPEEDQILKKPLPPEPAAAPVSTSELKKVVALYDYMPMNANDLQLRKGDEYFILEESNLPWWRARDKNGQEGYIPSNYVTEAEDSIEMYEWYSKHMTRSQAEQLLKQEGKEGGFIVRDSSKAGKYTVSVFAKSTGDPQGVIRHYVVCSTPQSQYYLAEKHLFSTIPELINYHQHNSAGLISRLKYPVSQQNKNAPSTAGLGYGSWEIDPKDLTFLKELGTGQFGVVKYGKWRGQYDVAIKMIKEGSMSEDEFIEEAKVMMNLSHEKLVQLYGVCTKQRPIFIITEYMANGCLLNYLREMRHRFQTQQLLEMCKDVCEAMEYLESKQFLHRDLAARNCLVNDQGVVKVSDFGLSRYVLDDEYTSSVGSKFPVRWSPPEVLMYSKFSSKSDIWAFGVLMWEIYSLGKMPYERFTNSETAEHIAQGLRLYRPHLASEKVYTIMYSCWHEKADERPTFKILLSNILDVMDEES

HER4 = HER4 (Homo sapiens (Human), UniProt Q15303); assay: HotSpot kinase assay, HER4; type: biochemical; details: Table 1, first of two rows printed HER4; 1 uM ATP
HER4, sequence (Q15303 other isoform, or with tags, fused parts or gaps): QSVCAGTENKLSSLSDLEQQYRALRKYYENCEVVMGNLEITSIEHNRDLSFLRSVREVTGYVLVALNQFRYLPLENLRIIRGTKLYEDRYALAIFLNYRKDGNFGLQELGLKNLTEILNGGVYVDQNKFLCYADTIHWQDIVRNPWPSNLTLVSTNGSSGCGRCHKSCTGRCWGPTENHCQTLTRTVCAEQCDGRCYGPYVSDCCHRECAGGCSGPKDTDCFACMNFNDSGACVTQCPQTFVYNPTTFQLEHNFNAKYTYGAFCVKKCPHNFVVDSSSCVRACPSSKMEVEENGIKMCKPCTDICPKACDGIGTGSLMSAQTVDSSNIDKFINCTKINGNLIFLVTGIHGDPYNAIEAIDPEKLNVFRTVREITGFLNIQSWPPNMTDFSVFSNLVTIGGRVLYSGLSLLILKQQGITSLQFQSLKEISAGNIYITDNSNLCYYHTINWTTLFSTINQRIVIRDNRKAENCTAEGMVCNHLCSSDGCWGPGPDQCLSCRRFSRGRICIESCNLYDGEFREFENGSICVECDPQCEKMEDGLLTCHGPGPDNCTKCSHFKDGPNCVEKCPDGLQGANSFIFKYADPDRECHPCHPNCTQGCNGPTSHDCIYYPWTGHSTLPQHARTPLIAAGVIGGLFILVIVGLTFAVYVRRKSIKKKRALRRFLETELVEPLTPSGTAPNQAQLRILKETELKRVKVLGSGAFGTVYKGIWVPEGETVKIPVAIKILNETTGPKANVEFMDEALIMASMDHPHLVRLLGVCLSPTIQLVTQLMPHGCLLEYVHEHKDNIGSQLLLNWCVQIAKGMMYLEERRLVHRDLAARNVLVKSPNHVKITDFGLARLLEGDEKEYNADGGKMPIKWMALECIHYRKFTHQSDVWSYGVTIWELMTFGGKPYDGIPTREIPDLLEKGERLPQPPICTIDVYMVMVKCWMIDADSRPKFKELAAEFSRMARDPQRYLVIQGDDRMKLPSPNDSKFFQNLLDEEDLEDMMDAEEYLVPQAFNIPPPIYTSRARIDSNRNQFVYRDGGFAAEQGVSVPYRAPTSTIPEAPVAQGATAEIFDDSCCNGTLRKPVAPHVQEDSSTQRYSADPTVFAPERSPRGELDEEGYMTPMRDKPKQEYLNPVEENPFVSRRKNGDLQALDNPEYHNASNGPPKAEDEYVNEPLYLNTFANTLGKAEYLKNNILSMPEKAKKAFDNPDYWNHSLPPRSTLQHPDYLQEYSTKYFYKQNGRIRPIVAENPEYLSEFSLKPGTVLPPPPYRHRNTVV

SMILES: CN(C)C/C=C/C(=O)N1CCC[C@@H](n2nc(-c3ccc(Oc4ccccc4)cc3)c3c(N)ncnc32)C1 [Compound 2]
kinase panel profile [3]: highly potent and selective inhibitor of Tec family kinases

SMILES: CN(C/C=C/C(=O)N1CCCC(n2nc(-c3ccc(Oc4ccccc4)cc3)c3c(N)ncnc32)C1)CCO (centres unmarked) [Compound 3]
IC50 (BTK): 21 nM

The next lines start with results.

in vivo half-life [2]: short half-life
SMILES: C=CC(=O)N1CCC[C@@H](n2nc(-c3ccc(Oc4ccccc4)cc3)c3c(N)ncnc32)C1 [Compound 1]
sensitivity to compound [1]: resistant
sensitivity to compound (Ramos): resistant
proteinuria (proteinuria): significantly reduced proteinuria
amount of Evans Blue release (mast cell degranulation): significantly decrease the amount of Evans Blue release
inhibition of B cell activation (normal human B cells): sufficient to inhibit B cell activation
efficacy in xenograft (MDA-MB-453 xenograft): efficacy

IC50 (HER4): 1540 nM
SMILES: C=CC(=O)N[C@H]1CC[C@@H](n2nc(-c3ccc(Oc4ccccc4)cc3)c3c(N)ncnc32)CC1 [Compound 9]

in vivo half-life [2]: short half-life
SMILES: CN(C)C/C=C/C(=O)N1CCC[C@H]1Cn1nc(-c2ccc(Oc3ccccc3)cc2)c2c(N)ncnc21 [Compound 12, (E)-1-((S)-2-((4-amino-3-(4-phenoxyphenyl)-1H-pyrazolo[3,4-d]pyrimidin-1-yl)methyl)pyrrolidin-1-yl)-4-(dimethylamino)but-2-en-1-one]
